Several values for one entry are separate records, joined by “and”; a condition that tells them apart may be missing. Equal entries are not always repeated. Activity calls are given as the source filed them. No cut-off for these calls is given here.
What was measured:
[1] = tested on: SH-SY5Y; test: Cytotoxicity against non-differentiated human SH-SY5Y cells assessed as reduction in cell viability measured after 24 hrs by MTT reduction assay relative to control; format: functional; design: concentration or dose not given beside the values
[2] = tested on: SH-SY5Y; test: Cytotoxicity against differentiated human SH-SY5Y cells assessed as reduction in cell viability at 100 uM measured after 48 hrs by MTT reduction assay relative to control; format: functional
[3] = tested on: SH-SY5Y; test: Neuroprotective activity against Amyloid beta(25 to 35)-induced cell injury in non-differentiated human SH-SY5Y cells assessed as reduction in formation of protein aggregates at 100 uM incubated for 24 hrs by ThT fluorescence assay; format: functional; design: scale not given: the % may be the effect or the level left
[4] = tested on: SH-SY5Y; test: Neuroprotective activity against Amyloid beta(25 to 35)-induced cell injury in non-differentiated human SH-SY5Y cells assessed as reduction in formation of protein aggregates at 100 uM incubated for 24 hrs in presence of glypromate by ThT fluorescence assay; format: functional; design: scale not given: the % may be the effect or the level left
[5] = tested on: SH-SY5Y; test: Neuroprotective activity against 6-OHDA-induced cytotoxicity in differentiated human SH-SY5Y cells at 100 uM incubated for 48 hrs followed by exposure to 6-OHDA by MTT reduction assay (reference value: 61.50+/-7.43%); format: functional; design: scale not given: the % may be the effect or the level left
[6] = tested on: SH-SY5Y; test: Neuroprotective activity against 6-OHDA-induced cytotoxicity in differentiated human SH-SY5Y cells at 100 uM incubated for 48 hrs followed by exposure to 6-OHDA in presence of memantine by MTT reduction assay; format: functional, cell-based
[7] = tested on: SH-SY5Y; test: Neuroprotective activity in Amyloid beta(25 to 35)-induced non-differentiated human SH-SY5Y cells assessed as fold increase in protein aggregation reduction 100 uM incubated for 24 hrs by ThT fluorescence assay; format: functional
[8] = tested on: SH-SY5Y; test: Neuroprotective activity against Amyloid beta(25 to 35)-induced cell injury in non-differentiated human SH-SY5Y cells assessed as reduction in formation of protein aggregates at 100 uM incubated for 24 hrs by fluorescence microscopy based analysis; format: functional
[9] = tested on: SH-SY5Y; test: Neuroprotective activity against 6-OHDA-induced cytotoxicity in differentiated human SH-SY5Y cells at 100 uM incubated for 48 hrs followed by exposure to 6-OHDA in presence of glypromate by MTT reduction assay; format: functional, cell-based
[10] = tested on: SH-SY5Y; test: Neuroprotective activity against 6-OHDA-induced cytotoxicity in differentiated human SH-SY5Y cells at 100 uM incubated for 48 hrs followed by exposure to 6-OHDA by MTT reduction assay; format: functional, cell-based

Row | SMILES | Activity [1] | Activity [2] | Activity [3] | further results
1 | COC(=O)CC[C@H](NC(=O)[C@@H]1CCCN1C(=O)CNC(=O)OC(C)(C)C)C(=O)NC12CC3CC(C)(CC(C)(C3)C1)C2 | <85% | – | – | –
2 | COC(=O)[C@H](CCC(=O)NC12CC3CC(C)(CC(C)(C3)C1)C2)NC(=O)[C@@H]1CCCCN1C(=O)CN.O=C(O)C(F)(F)F | <85% | <25% | – | –
3 | N[C@@H]1CCc2ccccc21 | – | – | 38% | Activity [4]: 79.68%
4 | COC(=O)CC[C@H](NC(=O)[C@@H]1CCCCN1C(=O)CN(C)C)C(=O)NC12CC3CC(C)(CC(C)(C3)C1)C2 | <85% | <25% | – | –
5 | COC(=O)[C@H](CCC(=O)NC12CC3CC(CC(C3)C1)C2)NC(=O)[C@@H]1CCCCN1C(=O)CN(C)C | <85% | <25% | – | –
6 | COC(=O)CC[C@H](NC(=O)[C@@H]1CCCN1C(=O)CNC(=O)OC(C)(C)C)C(=O)N[C@@H]1CCc2ccccc21 | <85% | – | – | –
7 | COC(=O)CC[C@H](NC(=O)[C@@H]1CCCCN1C(=O)CNC(=O)OC(C)(C)C)C(=O)NC12CC3CC(C)(CC(C)(C3)C1)C2 | <85% | 94.5% | – | –
8 | COC(=O)[C@H](CCC(=O)NC12CC3CC(CC(C3)C1)C2)NC(=O)[C@@H]1CCCCN1C(=O)CN.O=C(O)C(F)(F)F | 87.9% | – | – | –
9 | COC(=O)CC[C@H](NC(=O)[C@@H]1CCCCN1C(=O)CN)C(=O)NC12CC3CC(C)(CC(C)(C3)C1)C2.O=C(O)C(F)(F)F | <85% | <25% | – | –
10 | COC(=O)CC[C@H](NC(=O)[C@@H]1CCCN1C(=O)CN(C)C)C(=O)N[C@@H]1CCc2ccccc21 | 93.5% | 104.91% | 69.21% | –
11 | COC(=O)[C@H](CCC(=O)NC12CC3CC(CC(C3)C1)C2)NC(=O)[C@@H]1CCCCN1C(=O)CNC(=O)OC(C)(C)C | 92.96% | 91.13% | 127.26% | –
12 | COC(=O)CC[C@H](NC(=O)[C@@H]1CCCCN1C(=O)CNC(=O)OC(C)(C)C)C(=O)N[C@@H]1CCc2ccccc21 | 97.28% | 99.35% | 120.05% | –
13 | COC(=O)[C@H](CCC(=O)N[C@@H]1CCc2ccccc21)NC(=O)[C@@H]1CCCCN1C(=O)CNC(=O)OC(C)(C)C | 96.69% | – | 120.77% | –
14 | COC(=O)[C@H](CCC(=O)NC12CC3CC(C)(CC(C)(C3)C1)C2)NC(=O)[C@@H]1CCCCN1C(=O)CN(C)C | <85% | <25% | – | –
15 | COC(=O)CC[C@H](NC(=O)[C@@H]1CCCN1C(=O)CNC(=O)OC(C)(C)C)C(=O)NC12CC3CC(CC(C3)C1)C2 | 89.28% | – | 80.35% | –
16 | COC(=O)[C@H](CCC(=O)N[C@@H]1CCc2ccccc21)NC(=O)[C@@H]1CCCCN1C(=O)CN(C)C | – | – | – | Activity ([1]; 24 h): 97.03% and <85%
17 | COC(=O)[C@H](CCC(=O)NC12CC3CC(C)(CC(C)(C3)C1)C2)NC(=O)[C@@H]1CCCN1C(=O)CN(C)C | <85% | 99.94% | – | Activity [5]: 65.16%
18 | NCC(=O)N1CCC[C@H]1C(=O)N[C@@H](CCC(=O)O)C(=O)O | – | – | 87.78% | Activity [6]: inactive
19 | COC(=O)[C@H](CCC(=O)N[C@@H]1CCc2ccccc21)NC(=O)[C@@H]1CCCN1C(=O)CN.O=C(O)C(F)(F)F | 94.4% | 98.02% | 57.42% | fold change (FC) [7]: 3.6; Activity [8]: Active
20 | COC(=O)[C@H](CCC(=O)NC12CC3CC(CC(C3)C1)C2)NC(=O)[C@@H]1CCCN1C(=O)CN(C)C | 86.22% | – | – | –

Row | SMILES | Activity [1] | Activity [2] | Activity [3] | further results
21 | CC12CC3CC(C)(C1)CC(N)(C3)C2 | – | – | – | Activity [9]: inactive; Activity [10]: inactive
22 | COC(=O)CC[C@H](NC(=O)[C@@H]1CCCN1C(=O)CN)C(=O)NC12CC3CC(C)(CC(C)(C3)C1)C2.O=C(O)C(F)(F)F | <85% | 97.3% | – | –
23 | COC(=O)CC[C@H](NC(=O)[C@@H]1CCCN1C(=O)CN)C(=O)NC12CC3CC(CC(C3)C1)C2.O=C(O)C(F)(F)F | 94.84% | 109.73% | – | Activity [5]: 67.28%
24 | COC(=O)[C@H](CCC(=O)N[C@@H]1CCc2ccccc21)NC(=O)[C@@H]1CCCCN1C(=O)CN.O=C(O)C(F)(F)F | 89.37% | – | – | –
25 | COC(=O)CC[C@H](NC(=O)[C@@H]1CCCN1C(=O)CN(C)C)C(=O)NC12CC3CC(C)(CC(C)(C3)C1)C2 | <85% | 103.96% | – | Activity [5]: 70.93%
26 | COC(=O)CC[C@H](NC(=O)[C@@H]1CCCN1C(=O)CN)C(=O)N[C@@H]1CCc2ccccc21.O=C(O)C(F)(F)F | 87.33% | 98.44% | 62.25% | Activity [5]: 65.5%; fold change (FC) [7]: 3.2; Activity [8]: Active
27 | COC(=O)CC[C@H](NC(=O)[C@@H]1CCCCN1C(=O)CN)C(=O)N[C@@H]1CCc2ccccc21.O=C(O)C(F)(F)F | 94.96% | 98.85% | 129.25% | –
28 | COC(=O)CC[C@H](NC(=O)[C@@H]1CCCCN1C(=O)CN(C)C)C(=O)NC12CC3CC(CC(C3)C1)C2 | 93.57% | – | – | –
29 | COC(=O)[C@H](CCC(=O)N[C@@H]1CCc2ccccc21)NC(=O)[C@@H]1CCCN1C(=O)CNC(=O)OC(C)(C)C | <85% | – | – | –
30 | COC(=O)CC[C@H](NC(=O)[C@@H]1CCCCN1C(=O)CN)C(=O)NC12CC3CC(CC(C3)C1)C2.O=C(O)C(F)(F)F | 92.68% | 97.33% | 132.48% | –
31 | COC(=O)[C@H](CCC(=O)N[C@@H]1CCc2ccccc21)NC(=O)[C@@H]1CCCN1C(=O)CN(C)C | 99.51% | 99.49% | 81.51% | –
32 | COC(=O)CC[C@H](NC(=O)[C@@H]1CCCCN1C(=O)CN(C)C)C(=O)N[C@@H]1CCc2ccccc21 | – | 94.5% | – | Activity ([1]; 24 h): 95.12% and <85%
33 | COC(=O)[C@H](CCC(=O)NC12CC3CC(CC(C3)C1)C2)NC(=O)[C@@H]1CCCN1C(=O)CNC(=O)OC(C)(C)C | <85% | – | – | –
34 | COC(=O)CC[C@H](NC(=O)[C@@H]1CCCN1C(=O)CN(C)C)C(=O)NC12CC3CC(CC(C3)C1)C2 | 91.14% | 107.67% | 79.52% | Activity [5]: 68.03%
35 | COC(=O)CC[C@H](NC(=O)[C@@H]1CCCCN1C(=O)CNC(=O)OC(C)(C)C)C(=O)NC12CC3CC(CC(C3)C1)C2 | 92.73% | 101.45% | 133.03% | –
36 | COC(=O)[C@H](CCC(=O)NC12CC3CC(CC(C3)C1)C2)NC(=O)[C@@H]1CCCN1C(=O)CN.O=C(O)C(F)(F)F | 89.04% | – | – | –
37 | COC(=O)[C@H](CCC(=O)NC12CC3CC(C)(CC(C)(C3)C1)C2)NC(=O)[C@@H]1CCCCN1C(=O)CNC(=O)OC(C)(C)C | <85% | 91.53% | – | –
38 | COC(=O)[C@H](CCC(=O)NC12CC3CC(C)(CC(C)(C3)C1)C2)NC(=O)[C@@H]1CCCN1C(=O)CNC(=O)OC(C)(C)C | <85% | – | – | –
39 | COC(=O)[C@H](CCC(=O)NC12CC3CC(C)(CC(C)(C3)C1)C2)NC(=O)[C@@H]1CCCN1C(=O)CN.O=C(O)C(F)(F)F | <85% | – | – | –
